From publication PMC11111408, “Concurrent inhibition of oncogenic and wild-type RAS-GTP for cancer therapy” (Nature, 2024)
Values joined by “and” are separate entries in the source; they are usually repeats but may differ in a detail not shown here. Identical values can stand only once.

What was measured:
KRAS^G12V [1] = biological target: T1, KRAS^G12V (Homo sapiens, UniProt P01116+P62937, G12V); assay: Cellular RAS–RAF (CRAF RBD) disruption, nano-BRET in U2OS cells; assay type: cell-based; parameters: expressed in transfected cells; host or cells: U2OS PPIA-KO; Cellular RAS-RAF disruption G12V / Cellular nano-BRET G12V: scale not given here
Text: (§1) KRAS4B, or other small GTPases, containing the indicated mutations were cloned in pNLF-N or pHTN plasmids for expression with an N-terminal nanoluciferase or HaloTag fusion, respectively. […] The following day, the cells were collected by Trypsin and reseeded in a white tissue culture-treated 96-well plate in OptiMem phenol red-free medium (Gibco) containing 4% FBS and a 1:1,000 dilution of NanoBRET 618 HaloTag ligand (Promega). For endpoint concentration response curves, vivazine nanoluciferase substrate was added to 1× concentration in OptiMem phenol red-free medium with 4% FBS. Varying concentrations of inhibitor were added and incubated for 1 or 4 h before the nano-BRET signal was measured on a Perkin Elmer Envision plate reader. For kinetic assays, endurazine nanoluciferase substrate was used in place of vivazine, and the plate was placed in a Cytation5 multi-mode reader pre-equilibrated to 37 °C and 5% CO2.

KRAS^Q61H = KRAS^Q61H (Homo sapiens, UniProt P01116+P62937, Q61H); assay: Cellular RAS–CYPA binding (tri-complex formation), nano-BRET in U2OS cells; assay type: cell-based; parameters: expressed in transfected cells; host or cells: U2OS or U2OS PPIA-KO; conditions: (95% CI)
Text: as §1

KRAS^G12A = KRAS^G12A (Homo sapiens, UniProt P01116+P62937, G12A); assay: as above; assay type: cell-based; parameters: expressed in transfected cells; host or cells: U2OS or U2OS PPIA-KO; conditions: (95% CI)
Text: as §1

KRAS–RALGDS [2] = biological target: T2, KRAS–RALGDS (Homo sapiens, UniProt P01116, G12V); assay: Cellular nano-BRET, full length RALGDS binding to KRAS G12C, G12D, G12V; assay type: cell-based; conditions: KRAS G12V, in the presence of CYPA, single replicates
T2 construct: expressed in transfected cells; host or cells: U2OS

KRAS–RALGDS [3] = biological target: T3, KRAS–RALGDS (Homo sapiens, UniProt P01116, G12C); assay: as above; assay type: cell-based; conditions: KRAS G12C, in the presence of CYPA, single replicates
T3 construct: expressed in transfected cells; host or cells: U2OS

KRAS–RALGDS [4] = biological target: T4, KRAS–RALGDS (Homo sapiens, UniProt P01116, G12D); assay: as above; assay type: cell-based; conditions: KRAS G12D, in the presence of CYPA, single replicates
T4 construct: expressed in transfected cells; host or cells: U2OS

[5] = system: CT26 syngeneic tumours engineered to express KRAS^G12C; assay: Immune cell response in eCT26 KRAS^G12C syngeneic tumours; assay type: in vivo, mouse; conditions: 24 hours post 4 days of treatment, 25 mg/kg PO QD, individual mice
Experimental: Tumor tissue was minced, processed with the Dri Tumor & Tissue Dissociation Reagent from BD Biosciences and homogenized with the gentleMACS™ Dissociator. Tumor cell suspensions were incubated at 4°C for 30 minutes with Mouse BD Fc Block (Clone 2.4G2 from BD Pharmingen), 10 minutes with Blue Dead Cell Stain Kit (Invitrogen) and 30 min in cell staining buffer. […] Cells were analyzed on a 4-laser Cytek Aurora (Cytek Biosciences), and data analysis was done using SpectroFlo (Cytek Biosciences) and FlowJo (FlowJo LLC.).

KRAS^G12V [6] = biological target: T1, KRAS^G12V; assay: Biochemical RAS–RAF (BRAF RBD) disruption, TR-FRET; parameters: His6-TEV (N); made in house; host or cells: BL21(DE3) Escherichia coli
Text: (§2) Time-resolved fluorescence resonance energy transfer (TR-FRET) was used as previously described to assess disruption of the interactions between wild-type RAS or the mutant oncogenic RAS proteins and the RAS-binding domain of BRAF, and to assess the induction of interactions between the RAS proteins and CYPA[12].

KRAS^G12C = KRAS^G12C (Homo sapiens, UniProt P01116+P62937, G12C); assay: Biochemical RAS–RAF (BRAF RBD) disruption, TR-FRET; parameters: His6-TEV (N); made in house; host or cells: BL21(DE3) Escherichia coli
Text: as §2

## CCn1c(-c2cc(N3CCN(C4CC4)CC3)cnc2[C@H](C)OC)c2c3cc(ccc31)-c1csc(n1)C[C@H](NC(=O)[C@H]1[C@@H]3COC[C@@H]31)C(=O)N1CCC[C@H](N1)C(=O)OCC(C)(C)C2 [RMC-7977]
KRAS^G12V [1]; KRAS^G12V, CRAF RBD, nano-BRET, (95% CI)
  EC50: 7.66 nM
KRAS^G12V [1]; RMC-7977 0.0254 nM
  Cellular RAS-RAF disruption G12V: 100.00
KRAS^G12V [1]; RMC-7977 0.05 nM
  Cellular RAS-RAF disruption G12V: 95.09 and 96.3702
KRAS^G12V [1]; RMC-7977 0.08 nM
  Cellular RAS-RAF disruption G12V: 99.62
KRAS^G12V [1]; RMC-7977 0.23 nM
  Cellular RAS-RAF disruption G12V: 93.81
KRAS^G12V [1]; RMC-7977 0.46 nM
  Cellular RAS-RAF disruption G12V: 63.26 and 77.9214
KRAS^G12V [1]; RMC-7977 2.06 nM
  Cellular RAS-RAF disruption G12V: 66.75
KRAS^G12V [1]; RMC-7977 4.12 nM
  Cellular RAS-RAF disruption G12V: 17.09 and 32.4499
KRAS^G12V [1]; RMC-7977 12.35 nM
  Cellular RAS-RAF disruption G12V: 8.26 and 13.953
KRAS^G12V [1]; RMC-7977 18.52 nM
  Cellular RAS-RAF disruption G12V: 13.89
KRAS^G12V [1]; RMC-7977 37.04 nM
  Cellular RAS-RAF disruption G12V: 4 and 4.5731
KRAS^G12V [1]; RMC-7977 55.56 nM
  Cellular RAS-RAF disruption G12V: 3.90
KRAS^G12V [1]; RMC-7977 111.11 nM
  Cellular RAS-RAF disruption G12V: 1.99 and 1.6717
KRAS^G12V [1]; RMC-7977 166.67 nM
  Cellular RAS-RAF disruption G12V: 0.38
KRAS^G12V [1]; RMC-7977 500.00 nM
  Cellular RAS-RAF disruption G12V: 0.05
KRAS^G12V [1]; calculated RMC-7977:CYPA complexes 1.95 nM
  Cellular nano-BRET G12V: 99.62
KRAS^G12V [1]; calculated RMC-7977:CYPA complexes 34.93 nM
  Cellular nano-BRET G12V: 41.01 and 56.3646
KRAS^G12V [1]; calculated RMC-7977:CYPA complexes 52.21 nM
  Cellular nano-BRET G12V: 66.75
KRAS^G12V [1]; calculated RMC-7977:CYPA complexes 153.42 nM
  Cellular nano-BRET G12V: 36.46
KRAS^G12V [1]; calculated RMC-7977:CYPA complexes 297.71 nM
  Cellular nano-BRET G12V: 8.26 and 13.953
KRAS^G12V [1]; calculated RMC-7977:CYPA complexes 433.65 nM
  Cellular nano-BRET G12V: 13.89
KRAS^G12V [1]; calculated RMC-7977:CYPA complexes 798.08 nM
  Cellular nano-BRET G12V: 4 and 4.5731
KRAS^G12V [1]; calculated RMC-7977:CYPA complexes 1814.88 nM
  Cellular nano-BRET G12V: 1.99 and 1.6717
KRAS^G12V [1]; calculated RMC-7977:CYPA complexes 2304.15 nM
  Cellular nano-BRET G12V: 0.38
KRAS^G12V [1]; calculated RMC-7977:CYPA complexes 3597.12 nM
  Cellular nano-BRET G12V: 0.05
KRAS^Q61H
  EC50: 5.75 nM
KRAS^G12A
  EC50: 4.91 nM
KRAS–RALGDS [2]; RMC-7977 4.115 nM
  Cellular nano-BRET of RALGDS (full-length) binding to KRAS: 30.1314 and 27.6913 and 29.7303 and 27.1744
KRAS–RALGDS [2]; RMC-7977 12.346 nM
  Cellular nano-BRET of RALGDS (full-length) binding to KRAS: 22.418 and 20.7842 and 21.8208 and 20.4059 and 22.2654 and 20.6652
KRAS–RALGDS [2]; RMC-7977 37.037 nM
  Cellular nano-BRET of RALGDS (full-length) binding to KRAS: 15.6693 and 15.6351 and 15.326 and 16.1305 and 15.8324 and 15.892
KRAS–RALGDS [2]; RMC-7977 111.111 nM
  Cellular nano-BRET of RALGDS (full-length) binding to KRAS: 12.652 and 12.1384 and 12.5044 and 12.7423 and 12.6511 and 12.657
KRAS–RALGDS [2]; RMC-7977 333.333 nM
  Cellular nano-BRET of RALGDS (full-length) binding to KRAS: 11.4911 and 11.1105 and 10.9221 and 11.2754 and 11.3448 and 11.4972
KRAS–RALGDS [2]; RMC-7977 1000.000 nM
  Cellular nano-BRET of RALGDS (full-length) binding to KRAS: 11.0787 and 10.8666 and 11.0137 and 11.1587 and 10.8841 and 10.9076
KRAS–RALGDS [3]; RMC-7977 4.115 nM
  Cellular nano-BRET of RALGDS (full-length) binding to KRAS: 18.1963 and 16.034 and 17.4595 and 15.2439 and 16.9748 and 14.2583
KRAS–RALGDS [3]; RMC-7977 12.346 nM
  Cellular nano-BRET of RALGDS (full-length) binding to KRAS: 13.0313 and 11.9807 and 11.9885 and 11.6119 and 11.6125 and 11.8549
KRAS–RALGDS [3]; RMC-7977 37.037 nM
  Cellular nano-BRET of RALGDS (full-length) binding to KRAS: 11.0793 and 10.028 and 11.2271 and 10.7778 and 11.2352 and 10.211
KRAS–RALGDS [3]; RMC-7977 111.111 nM
  Cellular nano-BRET of RALGDS (full-length) binding to KRAS: 10.2935 and 10.375 and 9.345 and 10.0632 and 10.0122 and 10.2781
KRAS–RALGDS [3]; RMC-7977 333.333 nM
  Cellular nano-BRET of RALGDS (full-length) binding to KRAS: 10.1394 and 10.5924 and 9.785 and 10.0763 and 9.658 and 9.979
KRAS–RALGDS [3]; RMC-7977 1000.000 nM
  Cellular nano-BRET of RALGDS (full-length) binding to KRAS: 10.8628 and 9.92 and 10.139 and 10.0712 and 10.3509 and 9.953
KRAS–RALGDS [4]; RMC-7977 12.346 nM
  Cellular nano-BRET of RALGDS (full-length) binding to KRAS: 21.965 and 22.2278 and 22.7225 and 21.1836 and 19.9465 and 19.3916
KRAS–RALGDS [4]; RMC-7977 37.037 nM
  Cellular nano-BRET of RALGDS (full-length) binding to KRAS: 15.9727 and 15.3384 and 16.4816 and 15.5961 and 16.3731 and 14.4955
KRAS–RALGDS [4]; RMC-7977 111.111 nM
  Cellular nano-BRET of RALGDS (full-length) binding to KRAS: 13.7998 and 12.0846 and 13.3529 and 13.1019 and 13.0482 and 11.2251
KRAS–RALGDS [4]; RMC-7977 333.333 nM
  Cellular nano-BRET of RALGDS (full-length) binding to KRAS: 11.2999 and 11.1999 and 10.8448 and 10.0467 and 10.686 and 10.4797
KRAS–RALGDS [4]; RMC-7977 1000.000 nM
  Cellular nano-BRET of RALGDS (full-length) binding to KRAS: 10.2193 and 10.47 and 10.4459 and 10.0036 and 10.1066 and 10.1313
[5]
  AH1 specific % of CD8+ cells: 37.8% and 45.2% and 69.2% and 39.2%
  CD8+ % of CD45+ cells: 36.2% and 31.8% and 38.7% and 46.1%
  CD45+ % of live cells: 77.4% and 74.9% and 84.2% and 83.5%
KRAS^G12V [6]
  EC50: 44 nM
KRAS^G12C
  EC50: 31.8 nM
